Experiments:
[1] = tested on: Intact neurons; experiment: Lysosphingolipid loading of intact neurons (fluorescence tagging); format: in vitro ADME, chick; conditions: 10 μmolar exposure
Text: (§1) Total lipids were removed from the neuron samples by repeated extraction with chloroform:methanol (2:1, vol:vol). The lysosphingolipids were separated from total neuronal lipid in 90 ± 5 % recovery yield (n = 10) by the stepped chromatographic procedure of Van Veldhoven et al. (Anal. Biochem. 183:177-189, 1989). The recovered lysosphingolipids were stably tagged with NBDZF by the rapid procedure of Nozowa et al. (supra). The fluorescence tagged neuronal lysosphingolipids were separated in parallel with reference standards NBDZF-Sph, NBDZF-Psy, and NBDZF-Lsm on high performance silica gel thin layer chromatography plates with acetonitrile:H2O (10:0.5, vol:vol). The highly fluorescent, well separated bands were scraped from the plate. The fluorescence tagged lysosphingolipids are eluted from the scraped silica gel with methanol:1 N HCl (1:0.02, vol:vol). The fluorescence tagged lysosphingolipid eluates were quantitated against reference standards by fluorescence measurement in a Perkin-Elmer LS-5 Fluorescence Spectrometer.
Sphingolipid content of neurons exposed to sphingosine, lysocerebroside, and lysosphingomyelin was examined as follows. A Petri dish containing approximately 10^7 neurons was incubated with 5 µCi [^3H]myo-Ins in 3 ml DMEM overnight to prelabel the phosphoinositide InsP3 may contain. The neurons were washed with PBS and 3 ml of PBS containing 4.5 g/l glucose was added. Preparations of sphingosine, lysocerebroside, lysosphingomyelin (Sigma Chemical Co., St. Louis, MO) and combinations of each were prepared as the hydrochloride salt dissolved in PBS. The lysosphingolipids were added to the Petri dishes to produce a concentration ranging from 0 - 150 µM. […] Trypsinization removes non-specifically bound lysosphingolipids that may adhere to extracellular plasma membrane protein domains. Non-specific adherence between cationic micelles of lysosphingolipids and the neuronal glycocalyx is avoided by performing the experiments with lysosphingolipid concentrations below the critical micelle concentration. Neurons were analyzed for lysosphingolipid content as described above.
The suspended plasma membrane preparation was apportioned into 250 µl samples, each providing approximately 100 µg membrane protein. Sphingosine, psychosine, and lysosphingomyelin were added to each plasma membrane sample. The samples were held at room temperature for 3 hours, centrifuged at 300,000 X g for 30 minutes, and the supernatant discarded. Samples were analyzed for lysosphingolipid loading (i.e., membrane lysosphingolipid content following exposure to exogenous sphingolipid) by fluorescence tagging. Table 2 provides the results of exposure of plasma membrane samples to 10 µM lysosphingolipids. Values are reported in pmoles lysosphingolipid/mg plasma membrane protein. Values obtained for isolated plasma membrane and intact neurons are compared.

[2] = tested on: cultured neurons; experiment: Lysosphingolipid content of cultured neurons by NBDZF fluorescence tagging; format: cell-based, chick; conditions: following exposure to 50 µM lysosphingolipid for 1 hour
Text: Agonist-binding to metabotropic receptors influences the levels of lysosphingolipid in neuronal membranes. However, there is no convenient methodology available for the measurement of lysosphingolipid content in cultured neurons. As a result, a sensitive method of fluorometric tracing has been devised and is described herein. The measurement of lysosphingolipid content in cultured neurons is based on the stable fluorescence-tagging procedure using 4-fluoro, 7-nitrobenzofuran (NBDZF) described by Nozowa et al J. Neutochem. 59:607-609, 1992). The procedure was applied to: resting neurons; neurons exposed to 100 µM metabotropic receptor agonist for 1 hour; resting neurons exogenously enriched in lysosphingolipids; and neurons exogenously enriched in lysosphingolipids and exposed to metabotropic receptor agonist for 1 hour. The neurons were scraped in batches of 10^7 (1 Petri dish, approximately 8 cm in diameter, is equivalent to 2 mg membrane protein) and subjected to anaylsis.
as §1
Sphingolipid content of neurons exposed to sphingosine, lysocerebroside, and lysosphingomyelin was examined as follows. A Petri dish containing approximately 10^7 neurons was incubated with 5 µCi [^3H]myo-Ins in 3 ml DMEM overnight to prelabel the phosphoinositide InsP3 may contain. The neurons were washed with PBS and 3 ml of PBS containing 4.5 g/l glucose was added. Preparations of sphingosine, lysocerebroside, lysosphingomyelin (Sigma Chemical Co., St. Louis, MO) and combinations of each were prepared as the hydrochloride salt dissolved in PBS. The lysosphingolipids were added to the Petri dishes to produce a concentration ranging from 0 - 150 µM. The dishes were held at room temperature for 0.5, 1, or 2 hours, then washed with PBS and incubated with 5 Units of trypsin in glucose/PBS for […] at 37°C. Trypsinization removes non-specifically bound lysosphingolipids that may adhere to extracellular plasma membrane protein domains. Non-specific adherence between cationic micelles of lysosphingolipids and the neuronal glycocalyx is avoided by performing the experiments with lysosphingolipid concentrations below the critical micelle concentration. Neurons were analyzed for lysosphingolipid content as described above.

Row | SMILES | lysosphingolipid content, 0 hours of incubation [1] | lysosphingolipid content, 0.5 hours of incubation [1] | lysosphingolipid content, 1.0 hours of incubation [1] | lysosphingolipid content, 2.0 hours of incubation [1] | lysosphingolipid content, 3.0 hours of incubation [1] | content of sphingosine in the neurons [2] [pmoles/mg protein]
1 | CCCCCCCCCCCCC/C=C/[C@@H](O)[C@@H](N)COP(=O)([O-])OCC[N+](C)(C)C [lysosphingomyelin, sphingosyl phosphorylcholine] | 5±1 pmoles lysosphingolipid/mg plasma membrane protein | 8±2 pmoles lysosphingolipid/mg plasma membrane protein | 20±5 pmoles lysosphingolipid/mg plasma membrane protein | 45±5 pmoles lysosphingolipid/mg plasma membrane protein | 55±15 pmoles lysosphingolipid/mg plasma membrane protein | 105 ± 0.15
2 | CCCCCCCCCCCCC/C=C/[C@@H](O)[C@@H](N)CO[C@@H]1O[C@H](CO)[C@H](O)[C@H](O)[C@H]1O [psychosine] | 25±5 pmoles lysosphingolipid/mg plasma membrane protein | 35±15 pmoles lysosphingolipid/mg plasma membrane protein | 45±10 pmoles lysosphingolipid/mg plasma membrane protein | 80±5 pmoles lysosphingolipid/mg plasma membrane protein | 80±5 pmoles lysosphingolipid/mg plasma membrane protein | 220 ± 45
3 | CCCCCCCCCCCCC/C=C/[C@@H](O)[C@@H](N)CO [sphingosine] | 85±15 pmoles lysosphingolipid/mg plasma membrane protein | 85±20 pmoles lysosphingolipid/mg plasma membrane protein | 110±15 pmoles lysosphingolipid/mg plasma membrane protein | 105±5 pmoles lysosphingolipid/mg plasma membrane protein | 115±15 pmoles lysosphingolipid/mg plasma membrane protein | 430 ± 70

Reference: patent EP1488698A1, “Compositions for descreasing intracellular inositol trisphosphate concentration and uses thereof” (priority 1995, dated 1997)
